# Values joined by “and” are separate entries in the source; they are usually repeats but may differ in a detail not shown here. Identical values can stand only once. “Also recorded” adds a separate entry of the source. Like-named read-outs stand apart in the source and are kept apart here.
# Experiments:
# [1] = system: HCMV strain AD 169; test: Rabbit model of HCMV chorioretinitis (Example 5); format: in vivo, pigmented rabbit; conditions: for histology: preliminary
# Protocol: A total of 32 pigmented rabbits were used in this study. Animals were evaluated by slit lamp and indirect ophthalmoscopy to determine normal ocular morphology and lack of preexisting pathology. Animals were handled as follows:
# [1] On day 0, all rabbits were inoculated by mid-vitreal injection of 10^5 PFU HCMV strain AD 169 in 100 μl.
# [2] Animals were maintained in individual cages and developing chorioretinal HCMV disease was monitored daily. On day 2 PI, HCMV-inoculated animals were divided into 8 groups of 4 rabbits each with matched chorioretinal disease scores. The HCMV-infected rabbits received intravenous therapy as indicated below:
# Group #1--4 animals, intravenous injection of high dose experimental drug (50 mg/kg) daily from day 2 through 10 PI. A total of 9 IV injections.
# Group #3--4 animals, intravenous injection of low dose experimental drug (20 mg/kg) daily from day 2 through 10 PI. A total of 9 IV injections.
# Group #4--4 animals, intravenous injection of high dose experimental drug (50 mg/kg) daily from day 2 through 10 PI (a total of 9 IV injections) plus high dose DHPG 10 mg/kg/day in 2 divided doses from day 2 through 10 PI (a total of 18 IV injections).
# Group #5--4 animals, intravenous injection of high dose experimental drug (50 mg/kg) daily from day 2 through 10 PI (a total of 9 IV injections) plus low dose DHPG 5 mg/kg/day in 2 divided doses from day 2 through 10 PI (a total of 18 IV injections).
# Group #6--4 animals, intravenous injection of low dose experimental drug (20 mg/kg) daily from day 2 through 10 PI (a total of 9 IV injections) plus low dose DHPG 5 mg/kg/day in 2 divided doses from day 2 through 10 PI (a total of 18 IV injections).
# Group #7--4 animals, intravenous injection of DHPG 10 mg/kg/day in 2 divided doses from day 2 through day 10 PI. A total of 18 IV injections.
# Group #8--4 animals, intravenous injection of sterile saline on days 2 through 10 PI.
# [3] All animals received daily indirect ophthalmoscopic examinations to evaluate clinical HCMV disease progression (From days 2 through 10 PI). The indirect ophthalmoscopic examinations were performed independently by two readers who were masked as to the therapy that the rabbits were receiving.
# [4] All animals were sacrificed on day 12 PI. Chorioretina and iris tissues and vitreous samples will be removed and processed for HCMV recovery by cell sonicate assay on Hs68 cell monolayers. Selected ocular and lung tissue samples were processed for histochemistry to evaluate HCMV-induced ocular pathology in treated and non-treated groups.
# The clinical, virus recovery and histological efficacy results for all drug-treated intravenous therapy groups were correlated with each other and with the placebo therapy group.
# [2] = system: HCMV strain AD 169; test: Rabbit HCMV efficacy and time course recovery (Example 6)
# [3] = system: HCMV strain AD169; format: cell-based
# [4] = PALA 50 daily, DHPG 10/day, or PALA 50 + DHPG 10 or 5 mg/kg i.v.
# [5] = PALA 50, DHPG 10 or both, mg/kg/day i.v.
# [6] = day 3, DHPG 10 or PALA 50 + DHPG 10 mg/kg/d, sum of both eyes
# [7] = day 3, PALA 50, DHPG 10 or both, mg/kg/d
# [8] = day 3, sham-inoculated S1-S5, dose as groups 1-5
# [9] = day 4, DHPG 10 or PALA 50 + DHPG 10 mg/kg/d, sum of both eyes
# [10] = day 4, PALA 50, DHPG 10 or both, mg/kg/d
# [11] = day 4, sham-inoculated S1-S5, dose as groups 1-5
# [12] = day 5, DHPG 10 or PALA 50 + DHPG 10 mg/kg/d, sum of both eyes
# [13] = day 5, PALA 50, DHPG 10 or both, mg/kg/d
# [14] = day 5, sham-inoculated S1-S5, dose as groups 1-5
# [15] = day 6, PALA 50, DHPG 10 or both, mg/kg/d
# [16] = day 6, PALA 50 or DHPG 10 mg/kg/d
# [17] = day 6, sham-inoculated S1-S5, dose as groups 1-5
# [18] = day 7, DHPG 10 or PALA 50 + DHPG 10 mg/kg/d, sum of both eyes
# [19] = day 7, sham-inoculated S1-S5, dose as groups 1-5
# [20] = day 10, DHPG 10 or PALA 50 + DHPG 10 mg/kg/d, sum of both eyes
# [21] = day 10, sham-inoculated S1-S5, dose as groups 1-5
# [22] = PALA 50 mg/kg every other day i.v.
# [23] = PALA 20 daily, alone or + DHPG 5 mg/kg i.v.
compound,measurement,setting,value
"Nc1nc(O)c2ncn(COC(CO)CO)c2n1 [DHPG, reference compound]",HCMV recovery day 12 PI,[1]; [4],No HCMV was recovered
same,clinical efficacy,[1]; [4],did reduce the development of HCMV chorioretinal infection and disease; also recorded: effective in reducing the severity of HCMV-induced chorioretinal disease
same,lung appearance at sacrifice,[1]; [4],the lungs appeared normal
same,vitreitis severity,[1]; [4],moderate levels from day 4 through day 10 PI
same,eyes with stabilized chorioretinal disease,"[1]; by day 6-7 PI, DHPG 10 mg/kg/day",70%
same,HCMV recovery,[2]; [5],better than the mid-dose and low-dose combination therapy group and the single agent PALA group and the placebo therapy group
same,clinical disease,[2]; [5],did reduce the development of HCMV chorioretinal infection and disease and vitreitis
same,Optic neuritis score (ONH),"[2]; day 3, DHPG 10 or PALA 50 + DHPG 10 mg/kg/d",2
same,Chorioretinal score (C),[2]; [6],0
same,Vitreitis score (V),[2]; [6],3 and 2
same,"HCMV Recovered, OD",[2]; [7],+
same,"HCMV Recovered, OS",[2]; [7],+
same,"HCMV Titer, OD",[2]; [7],10^3 pfu
same,"HCMV Titer, OS",[2]; [7],10^3 pfu
same,HCMV recovery frequency,[2]; [7],2/2
same,Chorioretinal score (C),[2]; [8],0
same,Vitreitis score (V),[2]; [8],0
same,Optic neuritis score (ONH),"[2]; day 3, sham-inoculated S2-S5, dose as groups 2-5",0
same,Chorioretinal score (C),[2]; [9],0.5
same,Vitreitis score (V),[2]; [9],4 and 4.25
same,"HCMV Recovered, OD",[2]; [10],+
same,"HCMV Recovered, OS",[2]; [10],-
same,"HCMV Titer, OD",[2]; [10],10^1 pfu
same,HCMV recovery frequency,[2]; [10],1/2
same,Chorioretinal score (C),[2]; [11],0
same,Vitreitis score (V),[2]; [11],0
same,Optic neuritis score (ONH),"[2]; day 4, sham-inoculated S2-S5, dose as groups 2-5",0
same,Optic neuritis score (ONH),"[2]; day 5, DHPG 10 or PALA 50 + DHPG 10 mg/kg/d",4 and 5
same,Chorioretinal score (C),[2]; [12],0.5
same,Vitreitis score (V),[2]; [12],4.5 and 2.75
same,"HCMV Recovered, OD",[2]; [13],-
same,"HCMV Recovered, OS",[2]; [13],-
same,HCMV recovery frequency,[2]; [13],0/2
same,Chorioretinal score (C),[2]; [14],0
same,Vitreitis score (V),[2]; [14],0
same,Optic neuritis score (ONH),"[2]; day 5, sham-inoculated S2-S5, dose as groups 2-5",0
same,Vitreitis score (V),"[2]; day 6, DHPG 10 or PALA 50 + DHPG 10 mg/kg/d, sum of both eyes",3.5 and 2.5
same,"HCMV Recovered, OD",[2]; [15],+
same,"HCMV Recovered, OS",[2]; [15],-
same,HCMV recovery frequency,[2]; [15],1/2
same,"HCMV Titer, OD",[2]; [16],10^1 pfu
same,Chorioretinal score (C),[2]; [17],0
same,Vitreitis score (V),[2]; [17],0
same,Optic neuritis score (ONH),"[2]; day 6, sham-inoculated S2-S5, dose as groups 2-5",0
same,Optic neuritis score (ONH),"[2]; day 7, DHPG 10 or PALA 50 + DHPG 10 mg/kg/d",3 and 6
same,Chorioretinal score (C),[2]; [18],0
same,Vitreitis score (V),[2]; [18],3.5 and 3
same,Chorioretinal score (C),[2]; [19],0
same,Vitreitis score (V),[2]; [19],0
same,Optic neuritis score (ONH),"[2]; day 7, sham-inoculated S2-S5, dose as groups 2-5",0
same,Optic neuritis score (ONH),"[2]; day 10, DHPG 10 or PALA 50 + DHPG 10 mg/kg/d",3
same,Chorioretinal score (C),[2]; [20],0
same,Vitreitis score (V),[2]; [20],1.75 and 1.25
same,Chorioretinal score (C),[2]; [21],0
same,Vitreitis score (V),[2]; [21],0
same,Optic neuritis score (ONH),"[2]; day 10, sham-inoculated S2-S5, dose as groups 2-5",0
same,EC50,"[3]; Human betaherpesvirus 5, AD169, Hs68, AD 169, read-out: ED50 (the source's name)",19 µg/mL
same,Cell associated HCMV titer,[3]; day 0 PI,10^2 PFU/ml
same,Cell free (supernatant) HCMV titer,[3]; day 0 PI,10^5 PFU/ml
same,Cell associated HCMV titer,[3]; day 1 PI,10^2 PFU/ml
same,Cell free (supernatant) HCMV titer,[3]; day 1 PI,10^1 PFU/ml
same,Cell associated HCMV titer,[3]; day 2 PI,10^1 PFU/ml
same,Cell free (supernatant) HCMV titer,[3]; day 2 PI,10^1 PFU/ml
same,Cell associated HCMV titer,[3]; day 3 PI,10^1 PFU/ml
same,Cell free (supernatant) HCMV titer,[3]; day 3 PI,10^1 PFU/ml
same,Cell associated HCMV titer,[3]; day 4 PI,10^1 PFU/ml
same,Cell free (supernatant) HCMV titer,[3]; day 4 PI,0 PFU/ml
same,Cell associated HCMV titer,[3]; day 5 PI,0 PFU/ml
same,Cell free (supernatant) HCMV titer,[3]; day 5 PI,0 PFU/ml
same,Cell associated HCMV titer,[3]; day 6 PI,10^1 PFU/ml
same,Cell associated HCMV titer,[3]; day 7 PI,0 PFU/ml
O=C(O)C[C@H](NC(=O)CP(=O)(O)O)C(=O)O [PALA],histology,[1]; PALA 20 mg/kg daily i.v.,diffuse disease with moderate to severe chorioretinal disease
same,histology,[1]; PALA 50 mg/kg daily i.v.,moderate areas of chorioretinal HCMV disease restricted to the inner retina
same,HCMV recovery day 12 PI,[1]; [22],No HCMV was recovered
same,clinical efficacy,[1]; [22],marginally effective
same,lung appearance at sacrifice,[1]; [22],clear and non congested
same,optic nerve head edema and redness,[1]; [22],severe on days 3-4 PI
same,vitreitis severity,[1]; [22],moderate to severe levels within 3-4 days post inoculation
same,HCMV recovery day 12 PI,[1]; [23],No HCMV was recovered
same,clinical efficacy,[1]; [23],not effective
same,HCMV recovery day 12 PI,[1]; [4],No HCMV was recovered
same,clinical efficacy,[1]; [4],only marginally effective; also recorded: not effective
same,lung appearance at sacrifice,[1]; [4],clear and non congested
same,vitreitis severity,[1]; [4],moderate levels within 3-4 days post inoculation
same,interstitial pneumonitis,"[1]; rabbit, in vivo",prevented interstitial pneumonitis
same,HCMV recovery,[2]; [5],better than recovery in placebo treated eyes
same,"HCMV Recovered, OD",[2]; [7],+
same,"HCMV Recovered, OS",[2]; [7],+
same,"HCMV Titer, OD",[2]; [7],10^4 pfu
same,"HCMV Titer, OS",[2]; [7],10^4 pfu
same,HCMV recovery frequency,[2]; [7],2/2
same,Chorioretinal score (C),[2]; [8],0
same,Vitreitis score (V),[2]; [8],0
same,"HCMV Recovered, OD",[2]; [10],+
same,"HCMV Recovered, OS",[2]; [10],+
same,"HCMV Titer, OD",[2]; [10],10^3 pfu
same,"HCMV Titer, OS",[2]; [10],10^2 pfu
same,HCMV recovery frequency,[2]; [10],2/2
same,Chorioretinal score (C),[2]; [11],0
same,Vitreitis score (V),[2]; [11],0
same,"HCMV Titer, OD","[2]; day 5, PALA 50 mg/kg/d",10^1 pfu
same,"HCMV Titer, OS","[2]; day 5, PALA 50 mg/kg/d",10^2 pfu
same,"HCMV Recovered, OD",[2]; [13],+
same,"HCMV Recovered, OS",[2]; [13],+
same,HCMV recovery frequency,[2]; [13],2/2
same,Chorioretinal score (C),[2]; [14],0
same,Vitreitis score (V),[2]; [14],0
same,"HCMV Titer, OS","[2]; day 6, PALA 50 mg/kg/d",10^1 pfu
same,"HCMV Recovered, OD",[2]; [15],+
same,"HCMV Recovered, OS",[2]; [15],+
same,HCMV recovery frequency,[2]; [15],2/2
same,"HCMV Titer, OD",[2]; [16],10^1 pfu
same,Chorioretinal score (C),[2]; [17],0
same,Vitreitis score (V),[2]; [17],0
same,Chorioretinal score (C),[2]; [19],0
same,Vitreitis score (V),[2]; [19],0
same,Chorioretinal score (C),[2]; [21],0
same,Vitreitis score (V),[2]; [21],0
same,vitreitis / chorioretinal disease,"[2]; sham-inoculated S1, PALA 50 mg/kg/day",did not develop any vitreitis nor chorioretinal disease
same,log reduction at 10 µg/mL,"[3]; Human betaherpesvirus 5, AD169, Hs68, read-out: viral yield reduction",2 to 3
same,reduction of HCMV titer,"[3]; PALA 3 μg/ml, DHPG 19 μg/ml",effective in reducing HCMV titers
same,Cell associated HCMV titer,[3]; day 0 PI,10^2 PFU/ml
same,Cell free (supernatant) HCMV titer,[3]; day 0 PI,10^5 PFU/ml
same,Cell associated HCMV titer,[3]; day 1 PI,10^3 PFU/ml
same,Cell free (supernatant) HCMV titer,[3]; day 1 PI,10^1 PFU/ml
same,Cell associated HCMV titer,[3]; day 2 PI,10^1 PFU/ml
same,Cell free (supernatant) HCMV titer,[3]; day 2 PI,10^1 PFU/ml
same,Cell associated HCMV titer,[3]; day 3 PI,10^1 PFU/ml
same,Cell free (supernatant) HCMV titer,[3]; day 3 PI,10^3 PFU/ml
same,Cell associated HCMV titer,[3]; day 4 PI,10^1 PFU/ml
same,Cell free (supernatant) HCMV titer,[3]; day 4 PI,10^2 PFU/ml
same,Cell associated HCMV titer,[3]; day 5 PI,10^1 PFU/ml
same,Cell free (supernatant) HCMV titer,[3]; day 5 PI,10^1 PFU/ml
same,Cell associated HCMV titer,[3]; day 6 PI,10^1 PFU/ml
same,Cell associated HCMV titer,[3]; day 7 PI,0 PFU/ml

# — patent US5491135A (priority 1993, dated 1996)
